According to patent US11319347B2, “Peptide compound and method for producing same, composition for screening use, and method for selecting peptide compound” (FUJIFILM Corporation, priority 2017, dated 2022):
Starred links: 1 amine or outer side, 2 acyl side, 3 side chain; linkers in the order of their positions; H or OH if unused. Positions of bridges follow the written chain, without caps; N, C: chain ends. Non-standard residues stand in square brackets, D forms with d. Residues, ends and D or L forms follow the SMILES beside them. ξ: configuration not given here. 2Pal(6-thiazolin-2-yl-4R-CO) = O=C([C@H](Cc1cccc(C2=N[C@H](C(=O)[*:3])CS2)n1)N[*:1])[*:2]; Phe(3-(4R-CO-2-thiazolinyl)) = O=C([C@H](Cc1cccc(C2=N[C@H](C(=O)[*:3])CS2)c1)N[*:1])[*:2]; dCha = N[C@H](CC1CCCCC1)C(=O)O; ξL = CC(C)CC(N)C(=O)O

Experiment: Membrane permeability of synthesized cyclic peptides by PAMPA (Measurement Method A: 1 μmol/L; Method B: 10 μmol/L)
Assay type: in vitro ADME
Details: Measurement method A, 25° C., 4 hours
Description: Evaluation of membrane permeability of synthesized cyclic peptide by PAMPA method In order to compare and examine the membrane permeability of the synthesized cyclic peptide, parallel artificial membrane permeability assay (PAMPA) was carried out.
An artificial phospholipid membrane was produced by adding 5 μL of a phospholipid organic solvent solution consisting of L-α-phosphatidylcholine (Avanti Polar Lipids, Inc., Cat. 840051P, 1.67%), 1,2-dioleoyl-sn-glycero-3-phospho-L-serine (Avanti Polar Lipids, Inc., Cat. 840035P, 0.33%), and n-dodecane special grade (Wako Pure Chemical Industries, Ltd., 047-21612)/1-octanol reagent special grade (Kanto Chemical Co., Inc., Cat. 31013-08)=10:1 to Filter Plate (Merck Millipore Corporation, Cat. MAIPN4550).
475 μL of 50 mmol/L potassium phosphate buffer (KPB, pH 7.4 or pH 6.5) was added to 25 μL of a DMSO solution containing the compound at a concentration of 20 μmol/L, so that the compound was diluted to a final concentration of 1 μmol/L. 300 μL of the compound solution was added to the lower side (donor side) of PAMPA 96-well plate (Filter Plate (Merck Millipore Corporation, Cat. MAIPN4550)) with an artificial phospholipid membrane being interposed therebetween. 200 μL of 5% DMSO KPB (pH 7.4) was added to the upper side (acceptor side) with the artificial phospholipid membrane being interposed therebetween. A permeation test through an artificial phospholipid membrane was carried out at 25° C. for 4 hours. The compound concentration in the solution in the donor plate and the acceptor plate was measured by LC/MS/MS, and the membrane permeation rate (Pe) of the compound was calculated from the following formula, assuming that C0 is an initial compound concentration in donor solution, t is a test time, A is a membrane filter area=0.3 cm^2, VD is a donor solution amount=300 μL, VA is an acceptor solution amount=200 μL, and CD(t) is a compound concentration in donor solution at time t, CA(t) is a compound concentration in acceptor solution at time t, and Cequilibrium=[CD(t)*VD+CA(t)*VA]/(VD+VA).
475 μL of 50 mmol/L potassium phosphate buffer (KPB, pH 7.4 or pH 6.5) was added to 25 μL of a DMSO solution containing the compound at a concentration of […], so that the compound was diluted to a final concentration of 10 μmol/L. The compound solution was added 300 μL each to the lower side (donor side) of an artificial phospholipid membrane of PAMPA 96-well plate (Filter Plate (Merck Millipore Corporation, Cat. MAIPN4550)). 200 μL of 5% DMSO KPB (pH 7.4) was added to the upper side (acceptor side) with the artificial phospholipid membrane being interposed therebetween. A permeation test through an artificial phospholipid membrane was carried out at 25° C. for 4 hours. The compound concentration in the solution in the donor plate and the acceptor plate was measured by LC/MS/MS, and the membrane permeation rate (Pe) of the compound was calculated from the following formula, assuming that Co is an initial compound concentration in donor solution, t is a test time, A is a membrane filter area=0.3 cm^2, VD is a donor solution amount=300 μL, VA is an acceptor solution amount=200 μL, and CD(t) is a compound concentration in donor solution at time t, CA(t) is a compound concentration in acceptor solution at time t, and Cequilibrium=[CD(t)*VD+CA(t)*VA]/(VD+VA).
The membrane permeability (Pe(10^−6 cm/s)) obtained by this method is described in the following table.
(§1) Evaluation standards are as follows.

Compound	Pe(10^−6 cm/sec)
C[C@@H]1NC(=O)Cn2cc(nn2)C[C@@H](C(N)=O)NC(=O)[C@H]([C@@H](C)O)NC(=O)[C@H](CCCCN)NC(=O)[C@@H](Cc2c[nH]c3ccccc23)NC(=O)[C@H](Cc2ccccc2)NC1=O [10-4]	− (0.01≤Pe (10^−6 cm/s))
C[C@@]12CSC(=N1)c1cc(cs1)C[C@@H](C(N)=O)NC(=O)[C@H](CCCNC(=N)N)NC(=O)[C@H](Cc1c[nH]c3ccccc13)NC(=O)[C@@H](CC1CCCCC1)NC(=O)C1CCCN1C2=O (stereo partly drawn) [a-1-1]	+++ (0.5<Pe (10^−6 cm/s))
N=C(N)NCCC[C@@H]1NC(=O)[C@H](Cc2c[nH]c3ccccc23)NC(=O)[C@@H](CC2CCCCC2)NC(=O)[C@@H]2CCCN2C(=O)[C@@H]2CSC(=N2)c2cn(nn2)C[C@@H](C(N)=O)NC1=O [a-1-2]	++ (0.2<Pe (10^−6 cm/s)≤0.5)
Cn1nc2c3cc(ccc31)C[C@@H](C(N)=O)NC(=O)[C@H](CCCNC(=N)N)NC(=O)[C@H](Cc1c[nH]c3ccccc13)NC(=O)[C@@H](CC1CCCCC1)NC(=O)[C@@H]1CCCN1C(=O)[C@@H]1CSC2=N1 [a-1-3]	+++ (0.5<Pe (10^−6 cm/s))
Cn1ccc2cc3c(nc21)C1=N[C@@H](CS1)C(=O)N1CCC[C@H]1C(=O)N[C@H](CC1CCCCC1)C(=O)N[C@@H](Cc1c[nH]c2ccccc12)C(=O)N[C@@H](CCCNC(=N)N)C(=O)N[C@H](C(N)=O)C3 [a-1-4]	+++ (0.5<Pe (10^−6 cm/s))
N=C(N)NCCC[C@@H]1NC(=O)[C@H](Cc2c[nH]c3ccccc23)NC(=O)[C@@H](CC2CCCCC2)NC(=O)[C@@H]2CCCN2C(=O)[C@@H]2CSC(=N2)c2cc(on2)C[C@@H](C(N)=O)NC1=O [a-1-6]	+++ (0.5<Pe (10^−6 cm/s))
N=C(N)NCCC[C@@H]1NC(=O)[C@H](Cc2c[nH]c3ccccc23)NC(=O)[C@@H](CC2CCCCC2)NC(=O)[C@@H]2CCCN2C(=O)[C@@H]2CSC(=N2)c2ccc(cn2)OCCOCCOCCOCCOc2ccc(cc2)C[C@@H](C(N)=O)NC1=O [a-1-8]	+++ (0.5<Pe (10^−6 cm/s))
N=C(N)NCCC[C@@H]1NC(=O)[C@H](Cc2c[nH]c3ccccc23)NC(=O)[C@@H](CC2CCCCC2)NC(=O)[C@@H]2CCCN2C(=O)[C@@H]2CSC(=N2)c2ccc(s2)C(=O)NCCOCCOCCOCCOc2ccc(cc2)C[C@@H](C(N)=O)NC1=O [a-1-9]	+++ (0.5<Pe (10^−6 cm/s))
N=C(N)NCCC[C@@H]1NC(=O)[C@H](Cc2c[nH]c3ccccc23)NC(=O)[C@@H](CC2CCCCC2)NC(=O)[C@@H]2CCCN2C(=O)[C@@H]2CSC(=N2)c2coc(n2)-c2csc(n2)C[C@@H](C(N)=O)NC1=O [a-1-10]	+++ (0.5<Pe (10^−6 cm/s))
N=C(N)NCCC[C@@H]1NC(=O)[C@H](Cc2c[nH]c3ccccc23)NC(=O)[C@@H](CC2CCCCC2)NC(=O)[C@@H]2CCCN2C(=O)[C@@H]2CSC(=N2)c2csc(n2)-c2csc(n2)C[C@@H](C(N)=O)NC1=O [a-1-11]	+++ (0.5<Pe (10^−6 cm/s))
N=C(N)NCCC[C@@H]1NC(=O)[C@H](Cc2c[nH]c3ccccc23)NC(=O)[C@@H](CC2CCCCC2)NC(=O)[C@@H]2CCCN2C(=O)[C@@H]2CSC(=N2)c2cn3c(cccc3n2)C[C@@H](C(N)=O)NC1=O [a-1-12]	+++ (0.5<Pe (10^−6 cm/s))

Continued, values first:

Pe(10^−6 cm/sec)	Compound
+++ (0.5<Pe (10^−6 cm/s))	N=C(N)NCCC[C@@H]1NC(=O)[C@H](Cc2c[nH]c3ccccc23)NC(=O)[C@@H](CC2CCCCC2)NC(=O)[C@@H]2CCCN2C(=O)[C@@H]2CSC(=N2)c2ccc(cc2)[C@@H](C(N)=O)NC1=O [a-1-19]
++ (0.2<Pe (10^−6 cm/s)≤0.5)	CC(C)C[C@@H]1NC(=O)[C@@H]2CSC(=N2)c2cccc(c2)C[C@@H](C(=O)N[C@@H](C)C(=O)N[C@@H](CC(C)C)C(=O)N[C@@H](Cc2ccccc2)C(=O)N[C@@H](CC(C)C)C(=O)N[C@@H](C)C(N)=O)NC(=O)[C@@H]2CCCN2C(=O)[C@H](CCCCN)NC1=O [a-3-2] (LKP[Phe(3-(4R-CO-2-thiazolinyl))]ALFLA-NH2; lactam N-4)

Same assay, conditions: Measurement method B (10 μmol/L), 25° C., 4 hours

Compound	Pe(10^−6 cm/sec)
N=C(N)NCCC[C@@H]1NC(=O)[C@H](Cc2c[nH]c3ccccc23)NC(=O)[C@@H](CC2CCCCC2)NC(=O)[C@@H]2CCCN2C(=O)[C@@H]2CSC(=N2)c2cn(cn2)-c2ccc(cc2)C[C@@H](C(N)=O)NC1=O [a-1-5]	++ (0.2<Pe (10^−6 cm/s)≤0.5)
N=C(N)NCCC[C@@H]1NC(=O)[C@H](Cc2c[nH]c3ccccc23)NC(=O)[C@@H](CC2CCCCC2)NC(=O)[C@@H]2CCCN2C(=O)[C@@H]2CSC(=N2)c2cn3cc(ncc3n2)-c2cccc(c2)C[C@@H](C(N)=O)NC1=O [a-1-14]	+++ (0.5<Pe (10^−6 cm/s))
N=C(N)NCCC[C@@H]1NC(=O)[C@H](Cc2c[nH]c3ccccc23)NC(=O)[C@@H](CC2CCCCC2)NC(=O)[C@@H]2CCCN2C(=O)[C@@H]2CSC(=N2)c2cn3nc(ccc3n2)-c2cccc(c2)C[C@@H](C(N)=O)NC1=O [a-1-15]	++ (0.2<Pe (10^−6 cm/s)≤0.5)
N=C(N)NCCC[C@@H]1NC(=O)[C@H](Cc2c[nH]c3ccccc23)NC(=O)[C@@H](CC2CCCCC2)NC(=O)[C@@H]2CCCN2C(=O)[C@@H]2CSC(=N2)c2cn3cc(cnc3n2)-c2cccc(c2)C[C@@H](C(N)=O)NC1=O [a-1-16]	++ (0.2<Pe (10^−6 cm/s)≤0.5)
CC(C)C[C@@H]1NC(=O)[C@@H]2CSC(=N2)c2cccc(c2)C[C@@H](C(N)=O)NC(=O)[C@H](CC(C)C)NC(=O)[C@H](C)NC(=O)[C@H](Cc2ccccc2)NC(=O)[C@H](C)NC(=O)[C@@H]2CCCN2C(=O)[C@H](C)NC(=O)[C@H](CC(C)C)NC(=O)[C@H](CC(C)C)NC(=O)[C@@H]2CCCN2C(=O)[C@H](CC(C)C)NC(=O)[C@H](CCCNC(=N)N)NC(=O)[C@H](CC(C)C)NC1=O [a-3-1] (LLRLPLLAPAFAL[Phe(3-(4R-CO-2-thiazolinyl))]-NH2; lactam N-14)	+++ (0.5<Pe (10^−6 cm/s))
CC(=O)N[C@H]1CCCCNC(=O)[C@@H]2CSC(=N2)c2cccc(c2)C[C@@H](C(N)=O)NC(=O)[C@H](C)NC(=O)C(CC(C)C)NC(=O)[C@H](CCCCN)NC(=O)[C@H](CC(C)C)NC(=O)[C@H](C)NC(=O)[C@H](CC(C)C)NC1=O (stereo partly drawn) [a-4-1] (Ac-KLALK[ξL]A[Phe(3-(4R-CO-2-thiazolinyl))]-NH2; lactam 1-8)	+ (0.01<Pe (10^−6 cm/s)≤0.2)

Experiment: Metabolic stability of cyclic peptides in human liver microsomes (HLM residual rate)
Assay type: in vitro ADME
Details: 1 μmol/L, human liver microsomes 0.5 mg protein/mL, 37° C., 20 minutes, NADPH and UDPGA
Description: Test of metabolic stability of cyclic peptide in human liver microsome
An experiment using human liver microsomes (HLMs) was carried out in order to compare and examine the metabolic stability of the synthesized cyclic peptides.
The compound with a final concentration of 1 μmol/L was incubated in human liver microsomes (BD Cat #452117) prepared to a final concentration of 0.5 mg protein/mL using 100 mmol/L phosphate buffer (pH 7.4) at 37° C. for 20 minutes in the presence of reduced nicotinamide adenine dinucleotide phosphate (NADPH) and uridine 5′-diphosphate-α-D-glucuronic acid (UDPGA). Deproteinization treatment with acetonitrile was carried out, the amount of unaltered substance remaining was quantified using LC/MS/MS, and the residual rate (%) in 20 minutes was calculated. The HLM residual rate (%) obtained by this method is described in the following table.
as §1

Compound	HLM residual rate
N=C(N)NCCC[C@@H]1NC(=O)[C@H](Cc2c[nH]c3ccccc23)NC(=O)[C@@H](CC2CCCCC2)NC(=O)[C@@H]2CCCN2C(=O)[C@@H]2CSC(=N2)c2cc(ccn2)C[C@@H](C(N)=O)NC1=O [2-8]	+++ (60%<HLM residual rate (%))
N=C(N)NCCC[C@@H]1NC(=O)[C@H](Cc2c[nH]c3ccccc23)NC(=O)[C@@H](CC2CCCCC2)NC(=O)[C@@H]2CCCN2C(=O)[C@@H]2CSC(=N2)c2cccc(n2)C[C@@H](C(N)=O)NC1=O [2-9] (P[dCha]WR[2Pal(6-thiazolin-2-yl-4R-CO)]-NH2; lactam N-5)	+++ (60%<HLM residual rate (%))
